# Test results taken from patent publication US20010041708A1, “Compositions for preventing cellulite in mammalian skin” (Zen-Bio, Inc., priority 2000, published 2001).
# What was measured:
# [1] = system: stromal vascular (SV) cells from human adipose tissue; assay: Triglyceride (TG) content of differentiating primary cultures of SV cells; format: cell-based; settings: day 11
# Experimental: Abdominal adipose tissue (Exp. 1-5) and thigh adipose tissue (Exp. 5b) were obtained from middle-aged females with body mass indexes <30.0 during liposuction or elective surgery. Subsequently, tissue was minced and enzymatically digested for 45 min in a Krebs-Ringer buffer containing 1 mg/mL collagenase (CLS-1, Worthington Biochemical Corp, Lakewood, N.J.), 15 mg/mL bovine serum albumin (BSA), 5 mM glucose and 100 mM HEPES (pH 7.4). Digestion was carried out at a 5 mL/1 g ratio (digestion solution: tissue mass). The digesta was then filtered through 200- and 60-micron mesh and pelleted at 600×g for 5 min. The SV cells were resuspended in a RBC lysis buffer for 10 min and then filtered and recentrifuged to remove contaminating […]. Cultures of SV cells were grown in proliferation medium containing 90% DME/Ham's F-10 (1:1, v/v), 10% (v/v) fetal bovine serum (FBS), 15 mM HEPES (pH 7.4), 60 U/mL penicillin, 60 U/mL streptomycin, and 25 ug/mL fungizone. Cultures were incubated at 37° C. in a humidified […]:CO2 (90:10%) atmosphere. SV cells were grown to 80% confluency and then cryopreserved in liquid nitrogen in aliquots (2×10^6 cells/mL).
# Cryopreserved aliquots were subsequently thawed, seeded in T-150 flasks (e.g., 1 vial per 2 T-150 flasks), and grown in proliferation media until 80% confluent. At this time the cells were removed via trypsinization, seeded (3×10^4/cm^2, except for Exp. 1) in 24-well or 96-well (Exp. 5b) Falcon dishes, and allowed to attach for 24 h in proliferation medium. Following attachment, cultures were grown in differentiation medium for the next 3 d which contained DME/Ham's F-10 (1:1,v/v), 15 mM HEPES (pH 7.4), 33 uM biotin, 17 uM pantothenate, 100 nM human insulin, 1 uM dexamethasone (DEX), 60 U/mL penicillin, 60 U/mL streptomycin, 25 ug/mL fungizone, 0.25 mM isobutylmethylxanthine (IBMX), and TZD (Exp. 1 & 2=BRL 49653; Exp. 3-5=Zen Bio's proprietary reagent). Thereafter, cultures were exposed to adipocyte medium consisting of 90% DME/Ham's F-10 (1:1,v/v), 15 mM HEPES (pH 7.4), 3% FBS (v/v), 33 uM biotin, 17 uM pantothenate, 100 nM human insulin, 1 uM DEX, 60 U/mL penicillin, 60 U/mL streptomycin, and 25 ug/mL fungizone. Adipocyte media was replaced every 3 d. […] After 18 day in culture, the majority of the cells contained visual lipid droplets.
# Experiment 1 was designed to determine optimal culturing conditions during differentiation of primary cultures of SV cells isolated from human adipose tissue. Specifically, the experiment was designed to determine how seeding density and thiazolidinedione (TZD; PPARγ-agonist BRL 49653) concentration influenced TG content (ug/10^6cells). SV cells were seeded at increasing densities (2-, 3-, or 4×10^4/cm^2) in differentiation media containing 0, 1, or 10 uM TZD (BRL 49653) in this 3×3 factorial design. All cultures received the same adipocyte media after 3 d of differentiation. The cultures were harvested on day 11-12 of differentiation and TG content and cell number were measured. Another set of cultures was stained with Oil Red O and counterstained with Mayer's hematoxylin to assess cellular differentiation potential (n=3 per treatment combination).
# In Experiment 2 the impact of linoleic acid and the trans-10, cis-12 isomer of CLA on TG accumulation in these cells was examined. SV cells were seeded at a density of 3×10^4/cm^2 and continuously treated with either 10 uM linoleic acid, 100 uM linoleic acid, 10 uM trans-10, cis-12 CLA, or 100 uM trans-10, cis-12 CLA, and grown under our normal differentiation protocol. One set of control cultures contained only vehicle (BSA) and another contained vehicle plus TZD (BRL 49653). TG content and cell number were measured on day 11 of differentiation.
# The objective of Experiment 3 was to evaluate the dose response of trans-10, cis-12 CLA, cis-9, trans-11 CLA, and linoleic acid on TG content of the cultures. […]
# [2] = system: stromal vascular (SV) cells from human adipose tissue; assay: De novo lipogenesis (14C-glucose incorporation into cellular lipid); format: cell-based; settings: Exp. 5a
# Experimental: Experiments 5a and 5b were designed to determine if the trans-10, cis-12 CLA-mediated reduction in TG content was due to decreased lipogenesis and/or increased lipolysis. In Experiment 5a (lipogenesis), SV cells were seeded at a density of 3×10^4/cm^2 and continuously treated with increasing concentrations (3, 10, or 30 uM) of either linoleic acid, cis-9, tran-11 CLA, or trans-10, cis-12 CLA. A set of control cultures received vehicle (BSA) plus TZD. All cultures received differentiation media (days 1-3), adipocyte media (days 4-9), and low-glucose (˜5 mM) adipocyte media (days 10-12) prior to measuring de novo lipogenesis. On day 12, ^14C-labeled glucose incorporation into the lipid fraction of the cultures was measured for 2 h and, following lipid extraction, the radioactivity in the lipid fraction was determined by scintillation counting. Time course data (not shown) indicated a linear increase in radiolabeled glucose incorporation into lipid over 2 h.
# Incorporation of ^14C-glucose into cellular lipid was determined on day 12 of differentiation in cultures chronically treated with fatty acids or vehicle. Following the addition of fatty acids and low glucose (˜5 mM) medium to the cultures on day 12, 1.0 μCi [U-^14C]-glucose ([U-^14C]-D-glucose; SA ˜250 mCi/mmol, ICN, Costa Mesa, Calif.)/mL medium was added to the cultures for 2 h. Our time course study (data not shown) indicated a linear increase in radiolabeled glucose incorporation into lipid over a 2 h period. After 2 h, media containing unincorporated ^14C-glucose was immediately removed and the cultures were washed with 1 mL HBSS to remove unincorporated ^14C-glucose. An additional 1 mL of HBSS was added and, after vigorous tritaration, cells were transferred to glass vials. Five milliliters of a chloroform:methanol (2:1) solution was added to each vial and they were vortexed for 1 min. All samples were then centrifuged for 5 min at 1000×g to further separate the hydrophobic and hydrophilic phases. The lower hydrophobic phase was removed from the tubes and dried under nitrogen at 40° C. Five milliliters of scintillation cocktail (Scinti Verse, Fisher Scientific, Norcross, Ga.) was added to each sample, and the ^14C content was determined by liquid scintillation counting on a Beckman LS 6000 Scintillation Counter (Beckman Instruments, Palo Atlo, Calif.). […] The radioactivity in the lipid fraction from these cultures was subtracted from the total counts. Cell numbers were determined from parallel treatment groups in separate culture dishes at the time of radioisotope addition to the medium. Therefore, mean ^14C-glucose incorporation is expressed as cpm/10^6 cells.
# 3T3-L1 preadipocytes [3] = assay: TG content of 3T3-L1 preadipocytes; format: cell-based, murine
# PPARγ2 = PPARγ2 protein expression in 3T3-L1 preadipocytes; format: cell-based, murine
# aP2 = aP2 protein expression in 3T3-L1 preadipocytes; format: cell-based, murine
# 3T3-L1 preadipocytes [4] = assay: Fatty acid composition of neutral and phospholipid fractions of treated cultures; format: cell-based, murine
# [5] = system: 3T3-L1 adipocyte cell line; assay: Lipolysis of triglycerides (glycerol release) in 3T3-L1 adipocyte cell line; format: cell-based, rodent
compound,measurement,setting,value
"CCCCC/C=C\C=C\CCCCCCCCC(=O)O [trans-10, cis-12 CLA, 10-trans, 12-cis conjugated linoleic acid]",Less TG (ug/10^6 cells) than TZD-supplemented vehicle control cultures,"[1]; Exp. 2, 10 uM, continuous treatment",76%
same,TG content vs other treatments / TZD treated vehicle controls,"[1]; Exp. 2, 100 uM, continuous treatment",not significantly different
same,TG content vs TZD treated vehicle controls,"[1]; Exp. 3, 30 uM",not significantly different
same,"TG content, dose response","[1]; Exp. 3, 1-10 uM",decreased
same,Less TG content compared to TZD treated vehicle controls,"[1]; Exp. 4, 10 uM alone",approximately 60%
same,Less 14C-glucose incorporated into cellular lipid compared to TZD treated vehicle controls,"[2]; 30 uM, day 12, 2 h",80%
same,"Incorporation of 14C-glucose into cellular lipid per 10^6 cells, dose response","[2]; 3, 10, 30 uM, day 12",decreased
same,"TG content, treatment during only the first 3 d of differentiation",3T3-L1 preadipocytes [3],not sufficient to lower TG concentrations
same,Triglyceride content in 3T3-L1 adipocyte cells,3T3-L1 preadipocytes [3]; 3T3-L1 adipocyte cell line,decreasing triglyceride content
same,TG-lowering effect,3T3-L1 preadipocytes [3]; 3T3-L1 preadipocytes,responsible for the TG-lowering effects
same,"TG content, treatment during entire period of differentiation",3T3-L1 preadipocytes [3]; vs treatment during last 3 d,reduced TG content to a greater extent than treatment during the last 3 d of differentiation
same,PPARγ2 protein expression,PPARγ2; after 6 d of treatment,decreased
same,PPARγ2 protein expression compared to BSA controls,PPARγ2; day 2 of differentiation,increased PPARγ2 expression
same,PPARγ2 protein expression,PPARγ2; day 4 of differentiation,no effect on PPARγ2 protein expression
same,aP2 protein expression,aP2; after 6 d of treatment,decreased
same,aP2 protein expression,aP2; day 2 or 4 of differentiation,did not affect aP2 protein expression
same,Amount of cis-9 oleic acid,3T3-L1 preadipocytes [4],increased
same,Level of linoleic acid (18:2),3T3-L1 preadipocytes [4],increased
same,Amount of cis-11 oleic acid (18:1) compared to BSA controls,"3T3-L1 preadipocytes [4]; 50 uM, neutral and polar lipid fractions",lower amounts
same,Amount of palmitoleic acid (16:1) compared to BSA controls,"3T3-L1 preadipocytes [4]; 50 uM, neutral lipid fraction",lower amounts
same,Arachidonic acid (AA) in the phospholipid fraction,3T3-L1 preadipocytes [4]; increasing level in culture,dose-dependent increase
same,Incorporation into cellular lipid fractions,3T3-L1 preadipocytes [4]; neutral and phospholipid fractions,incorporated into the neutral and phospholipid fractions
same,Glycerol release by the cells,[5],increased glycerol release
